Reference: article PMC3419577 (The Journal of neuroscience : the official journal of the …, 2012)

Test system: cells in posterior cortex (V1), fresh frozen sections
Test: Binding of AP-fusion proteins on fresh-frozen brain sections
Parameters: species or system mouse
Settings: AP staining, competitor with AP-NtHD

Substance: Full-length Otx2: non-tagged, full-length Otx2 used as competitor
- competition of AP-NtHD binding: disrupts AP-NtHD cortical binding
